The record followed here is patent US20230399320A1, “NOVEL CAPSID ASSEMBLY INHIBITOR” (Pelemed Co., Ltd., priority 2020, published 2023).

Assay [1] has as its target T1, Cp149 (truncated form of a HBV core protein) (Hepatitis B virus genotype D subtype ayw, UniProt P03146).
T1 construct: Cp149 (amino acids 1-149) is a truncated form of a HBV core protein; histidine tag (cleaved yes); made in house; host or cells: Escherichia coli BL21(DE3)
Nature of the assay: Protein based assay: immunoblot analysis of in vitro HBV capsid assembly. It is filed as biochemical. Particulars: read-out: Protein based assay (% inhibition, 10 μM). As for the experimental part:
Cp149 (amino acids 1-149) is a truncated form of a HBV core protein. It was expressed in Escherichia coli, and the expressed protein was purified. The recombinant Cp149 was expressed in E. coli BL21(DE3) cells cultured in LB medium at 37° C. When the culture reached an OD600 of 0.7 to 0.8, expression of the culture was induced with 0.5 mM isopropyl-β-d-thiogalactopyranoside and the culture was cooled to 16° C. After 16 hours, the cells were harvested, flash-frozen in liquid nitrogen, and stored at −80° C. To purify Cp149, thawed cells were resuspended in lysis buffer (20 mM Tris-HCl pH 9.0, 200 mM NaCl, 10 mM imidazole, 10 μg per mL DNaseI, 1 mM phenylmethylsulfonyl fluoride), and treated with ultrasonic waves. The supernatant was loaded onto Ni-NTA affinity resin. Proteins were eluted using a 20 mM to 500 mM imidazole gradient dissolved in lysis buffer. After removing the histidine tag with thrombin, the protein was further purified by HiTrap Q anion exchange chromatography (17115401, GE Healthcare).
To determine the effect on in vitro Cp149 assembly, compounds of the present invention were added to the Cp149-containing suspension. The final concentration of Cp149 was 1 mg per mL, and the compounds of the present invention were added at concentrations of 0.1 to 10 μM. The suspension was mixed with reaction buffer (150 mM HEPES, pH 7.5, 15 mM NaCl) added in a 2:1 ratio. In vitro assembly was performed at 37° C. for 1 hour, and HBV capsid was detected by immunoblot analysis using an anti-HBV core antibody (1:2000, B0586, Dako).

The next assay has as its system HBV DNA. Nature of the assay: Quantitative PCR for measuring HBV DNA in cells (HBV DNA quantification). It counts as cell-based. As for the experimental part:
After treating cells with the indicated compounds, HBV DNA secreted into the medium and intracellular HBV DNA were extracted, purified, and quantified by quantitative PCR. To isolate the secreted HBV DNA, the culture medium was recovered and centrifuged at 15,000×g to remove debris. The medium was diluted 1:1 with phosphate-buffered saline (PBS), and 1 M NaOH solution was added to a final concentration of 0.1 M. The mixture was incubated at 37° C. for 1 hour. The protein was denatured by adding 2M Tris-HCl solution (pH 7.5) to a final concentration of 0.2 M and incubating at 98° C. for 5 minutes. The protein precipitation was removed by centrifugation at 15,000×g, and the supernatant was subjected to PCR with HBV DNA primer and probe sets:
Forward: 5′-[…]-3′, Reverse: 5′-[…]-3′, Probe: 5′-[…]-3′.

The mark [2] stands for this setting: Hepatitis B virus; read-out: HBV DNA quantification (IC50 μM).
Setting [3] is: Hepatitis B virus, read-out: HBV DNA quantification (IC50 μM).

Each structure is given as a SMILES string. Where two headings read alike, the source gives them in different places. Some results are limits rather than exact numbers.

T1 sequence (P03146 1-149): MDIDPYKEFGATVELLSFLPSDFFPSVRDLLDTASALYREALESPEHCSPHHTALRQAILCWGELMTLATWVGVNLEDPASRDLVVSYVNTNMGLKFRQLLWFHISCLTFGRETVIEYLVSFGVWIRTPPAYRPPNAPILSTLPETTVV

Consider `COc1ncccc1C(=O)NCCNc1cc(Nc2ccc(I)cc2)nc([S+](C)[O-])n1` (centres unmarked) [Compound 9e, N-(2-(6-(4-iodophenylamino)-2-(methylsulfinyl)pyrimidin-4-ylamino)ethyl)-2-methoxynicotinamide], for which, in assay [1], the inhibition at 10 µM was determined as 37%. For the same molecule, the IC50 in the assay on HBV DNA (setting [2]) is over 10 µM.

For `COc1ncccc1C(=O)NCCNc1cc(Nc2ccc(F)c(F)c2)nc([S+](C)[O-])n1` (centres unmarked) [Compound 9f, N-(2-(6-(3,4-difluorophenylamino)-2-(methylsulfinyl)pyrimidin-4-ylamino)ethyl)-2-methoxynicotinamide], the inhibition at 10 µM in assay [1] was determined as 38%. Besides, the IC50 in the assay on HBV DNA (setting [3]) is over 10 µM.

In the case of `COc1ncccc1C(=O)NCCNc1cc(Nc2ccc(F)c(F)c2)nc(S(C)(=O)=O)n1` [Compound 9g, N-(2-(6-(3,4-difluorophenylamino)-2-(methylsulfonyl)pyrimidin-4-ylamino)ethyl)-2-methoxynicotinamide], the inhibition at 10 µM in assay [1] stood at 59%. The IC50 with HBV DNA (setting [3]) was over 10 µM.

For the molecule `COc1ncccc1C(=O)NCCNc1cc(Nc2ccc(F)cc2Cl)nc([S+](C)[O-])n1` (centres unmarked) [Compound 9h, N-(2-(6-(2-chloro-4-fluorophenylamino)-2-(methylsulfinyl)pyrimidin-4-ylamino)ethyl)-2-methoxynicotinamide], the inhibition at 10 µM in assay [1] worked out at 43%. For the same molecule, in the assay on HBV DNA (setting [3]), the IC50 was over 10 µM.

In the case of `COc1ncccc1C(=O)NCCNc1cc(Nc2ccc(F)cc2Cl)nc(S(C)(=O)=O)n1` [Compound 9i, N-(2-(6-(2-chloro-4-fluorophenylamino)-2-(methylsulfonyl)pyrimidin-4-ylamino)ethyl)-2-methoxynicotinamide], the inhibition at 10 µM in assay [1] was 43%. In the assay on HBV DNA (setting [3]), the IC50 is over 10 µM.

As to `CSc1nc(Cl)cc(N(Cc2ccc(F)cc2)c2ccc(N3CCOCC3)cc2)n1` [Compound 10a, 6-chloro-N-(4-fluorobenzyl)-2-(methylthio)-N-(4-morpholinophenyl)pyrimidin-4-amine], in assay [1], the inhibition at 10 µM came to 58%. Further, in the assay on HBV DNA (setting [3]), the IC50 was over 10 µM.

With `CSc1nc(Cl)cc(N(CCc2ccc(F)cc2)c2ccc(N3CCOCC3)cc2)n1` [Compound 10b, 6-chloro-N-(4-fluorophenethyl)-2-(methylthio)-N-(4-morpholinophenyl)pyrimidin-4-amine], the inhibition at 10 µM in assay [1] turned out to be 76%. In addition, the IC50 with HBV DNA (setting [3]) was over 10 µM.

Take `CSc1nc(N)cc(N(Cc2ccc(F)cc2)c2ccc(N3CCOCC3)cc2)n1` [Compound 11a, N^4-(4-fluorobenzyl)-2-(methylthio)-N^4-(4-morpholinophenyl)pyrimidine-4,6-diamine]: in assay [1], the inhibition at 10 µM came out at 71%. Moreover, the IC50 in the assay with HBV DNA (setting [2]) is over 10 µM.

Regarding `CSc1nc(N)cc(N(CCc2ccc(F)cc2)c2ccc(N3CCOCC3)cc2)n1` [Compound 11b, N^4-(4-fluorophenethyl)-2-(methylthio)-N^4-(4-morpholinophenyl)pyrimidine-4,6-diamine], the inhibition at 10 µM in assay [1] was 74%. In the assay on HBV DNA (setting [2]), the IC50 is over 10 µM.

As for `COc1ncccc1C(=O)N1CCN(c2cc(Nc3ccc(N4CCOCC4)cc3)nc(SC)n2)CC1` [Compound 13, (2-methoxypyridin-3-yl)(4-(2-(methylthio)-6-(4-morpholinophenylamino)pyrimidin-4-yl)piperazin-1-yl)methanone], the inhibition at 10 µM in assay [1] was found to be 31%. Moreover, the IC50 with HBV DNA (setting [2]) was over 10 µM.

Consider `COc1ncccc1C(=O)N1CCN(c2cc(Nc3ccc(N4CCOCC4)cc3)nc([S+](C)[O-])n2)CC1` (centres unmarked) [Compound 14, (2-methoxypyridin-3-yl)(4-(2-(methylsulfinyl)-6-(4-morpholinophenylamino)pyrimidin-4-yl)piperazin-1-yl)methanone], for which, in assay [1], the inhibition at 10 µM was determined as 33%. Also, the IC50 in the assay with HBV DNA (setting [2]) is over 10 µM.

On to `CS(=O)(=O)c1nc(Cl)cc(Nc2ccc(F)cc2F)n1` [Compound 16a, 6-chloro-N-(2,4-difluorophenyl)-2-(methylsulfonyl)pyrimidin-4-amine], for which, in assay [1], the inhibition at 10 µM is 85%. Further, the IC50 with HBV DNA (setting [3]) was over 10 µM.

Turning to `CS(=O)(=O)c1nc(Cl)cc(Nc2cc(F)c(F)c(F)c2)n1` [Compound 16b, 6-chloro-2-(methylsulfonyl)-N-(3,4,5-trifluorophenyl)pyrimidin-4-amine], the inhibition at 10 µM in assay [1] was determined as 82%. Also, the IC50 with HBV DNA (setting [3]) was determined as 0.473 µM.

Turning to `CS(=O)(=O)c1nc(Nc2ccc(F)cc2)cc(Nc2ccc(F)cc2)n1` [Compound 18a, N^4,N^6-bis(4-fluorophenyl)-2-(methylsulfonyl)pyrimidine-4,6-diamine], in assay [1], the inhibition at 10 µM is 49%. Also, in the assay on HBV DNA (setting [2]), the half-maximal inhibitory concentration (IC50) amounted to 6.4 µM.

Regarding `CS(=O)(=O)c1nc(Nc2cc(F)c(F)c(F)c2)cc(Nc2cc(F)c(F)c(F)c2)n1` [Compound 18b, 2-(methylsulfonyl)-N^4,N^6-bis(3,4,5-trifluorophenyl)pyrimidine-4,6-diamine], the inhibition at 10 µM in assay [1] worked out at 69%. Also, the half-maximal inhibitory concentration (IC50) with HBV DNA (setting [2]) worked out at 1.02 µM.

On to `CS(=O)(=O)c1nc(Nc2ccc(F)c(Cl)c2)cc(Nc2ccc(F)c(Cl)c2)n1` [Compound 18c, N^4,N^6-bis(3-chloro-4-fluorophenyl)-2-(methylsulfonyl)pyrimidine-4,6-diamine], for which, in assay [1], the inhibition at 10 µM stood at 57%. Also, in the assay with HBV DNA (setting [3]), the IC50 turned out to be 0.587 µM.

For the molecule `CC(C)(C)OC(=O)N1CCN(c2cc(Nc3ccc(F)cc3)nc(S(C)(=O)=O)n2)CC1` [Compound 22a, tert-butyl 4-(6-(4-fluorophenylamino)-2-(methylsulfonyl)pyrimidin-4-yl)piperazine-1-carboxylate], the inhibition at 10 µM in assay [1] amounted to 68%. Moreover, the IC50 with HBV DNA (setting [3]) is 0.831 µM.

As for `CC(C)(C)OC(=O)N1CCN(c2cc(NCc3ccc(F)cc3)nc(S(C)(=O)=O)n2)CC1` [Compound 22b, tert-butyl 4-(6-(4-fluorobenzylamino)-2-(methylsulfonyl)pyrimidin-4-yl)piperazine-1-carboxylate], in assay [1], the inhibition at 10 µM was found to be 40%. For the same molecule, in the assay on HBV DNA (setting [3]), the IC50 came to 0.549 µM.

Regarding `CC(C)(C)OC(=O)N1CCN(c2cc(Nc3ccc(Cl)cc3)nc(S(C)(=O)=O)n2)CC1` [Compound 22c, tert-butyl 4-(6-(4-chlorophenylamino)-2-(methylsulfonyl)pyrimidin-4-yl)piperazine-1-carboxylate], the inhibition at 10 µM in assay [1] turned out to be 68%. In the assay with HBV DNA (setting [3]), the IC50 worked out at 0.577 µM.

Regarding `CC(C)(C)OC(=O)N1CCN(c2cc(NCc3ccc(Cl)cc3)nc(S(C)(=O)=O)n2)CC1` [Compound 22d, tert-butyl 4-(6-(4-chlorobenzylamino)-2-(methylsulfonyl)pyrimidin-4-yl)piperazine-1-carboxylate], in assay [1], the inhibition at 10 µM amounted to 55%. Moreover, the concentration for half-maximal inhibition (IC50) in the assay on HBV DNA (setting [3]) was determined as 5.08 µM.

For the molecule `CC(C)(C)OC(=O)N1CCN(c2cc(Nc3ccc(Br)cc3)nc(S(C)(=O)=O)n2)CC1` [Compound 22e, tert-butyl 4-(6-(4-bromophenylamino)-2-(methylsulfonyl)pyrimidin-4-yl)piperazine-1-carboxylate], the inhibition at 10 µM in assay [1] is 67%. For the same molecule, the IC50 in the assay with HBV DNA (setting [3]) came out at 0.652 µM.

Take `CC(C)(C)OC(=O)N1CCN(c2cc(Nc3ccc(I)cc3)nc(S(C)(=O)=O)n2)CC1` [Compound 22f, tert-butyl 4-(6-(4-iodophenylamino)-2-(methylsulfonyl)pyrimidin-4-yl)piperazine-1-carboxylate]: the inhibition at 10 µM in assay [1] amounted to 66%. The IC50 in the assay with HBV DNA (setting [3]) is 1.1 µM.

For the molecule `CC(C)(C)OC(=O)N1CCN(c2cc(Nc3ccc(F)c(F)c3)nc(S(C)(=O)=O)n2)CC1` [Compound 22g, tert-butyl 4-(6-(3,4-difluorophenylamino)-2-(methylsulfonyl)pyrimidin-4-yl)piperazine-1-carboxylate], the inhibition at 10 µM in assay [1] worked out at 84%. The IC50 with HBV DNA (setting [3]) is 0.658 µM.

Take `CC(C)(C)OC(=O)N1CCN(c2cc(Nc3cc(F)c(F)c(F)c3)nc(S(C)(=O)=O)n2)CC1` [Compound 22h, tert-butyl 4-(2-(methylsulfonyl)-6-(3,4,5-trifluorophenylamino)pyrimidin-4-yl)piperazine-1-carboxylate]: the inhibition at 10 µM in assay [1] stood at 96%. Moreover, the IC50 in the assay with HBV DNA (setting [3]) turned out to be 0.577 µM.

For the molecule `CC(C)(C)OC(=O)N1CCN(c2cc(NCc3cc(F)c(F)c(F)c3)nc(S(C)(=O)=O)n2)CC1` [Compound 22l, tert-butyl 4-(2-(methylsulfonyl)-6-(3,4,5-trifluorobenzylamino)pyrimidin-4-yl)piperazine-1-carboxylate], in assay [1], the inhibition at 10 µM is 89%. Further, the IC50 in the assay with HBV DNA (setting [3]) came out at 1.02 µM.

Usually inhibition stands for the share of the control response that was lost under treatment. The term IC50 denotes the concentration that gives 50% inhibition.
